The values that follow come from patent publication US20120184594A1, “PHENYLPYRROLIDINE COMPOUNDS” (Ferrer Internacional S.A., priority 2007, published 2012).

A short description of series [1]: Metabolic stability by incubation in human microsomes. As to conditions: disappearance of compound, 120 min, 1 μM. It is filed as in vitro ADME. An excerpt: (§1) Moreover, the compounds of the present invention advantageously provide relevant pharmacokinetic improvements.
The nature of series [2]: Rat plasma levels and brain/plasma ratio after administration. It is filed as in vivo. The following applies: 15 min after administration of 1 mg/Kg; for concentration at 15 min: plasma.
Excerpt: as §1

For series [3], the target named is T1, recombinant human MT1 receptor (Homo sapiens, UniProt P48039).
T1 construct: expressed in transfected cells; host or cells: unnamed cell line co-expressing mitochondrial apoaequorin and the Gα16 subunit
T1 sequence (P48039 whole entry): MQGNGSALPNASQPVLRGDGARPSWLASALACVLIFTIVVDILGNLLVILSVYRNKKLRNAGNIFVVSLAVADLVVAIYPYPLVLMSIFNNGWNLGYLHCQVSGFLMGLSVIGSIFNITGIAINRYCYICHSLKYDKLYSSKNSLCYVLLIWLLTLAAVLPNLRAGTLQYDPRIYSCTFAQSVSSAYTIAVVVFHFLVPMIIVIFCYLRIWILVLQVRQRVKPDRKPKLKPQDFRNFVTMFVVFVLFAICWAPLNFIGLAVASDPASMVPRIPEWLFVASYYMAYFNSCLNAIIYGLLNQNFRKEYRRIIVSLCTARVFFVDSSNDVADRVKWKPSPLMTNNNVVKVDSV
Briefly: Agonist activity on MT1 receptors (aequorin luminescence, Gα16 co-expressing cell line). It is filed as cell-based. As to conditions: percentage activity with respect to the reference agonist at its EC100; for MT1 agonism 1 nM: compound at 1 nM; for MT1 agonism 100 nM: compound at 100 nM, in %. An excerpt: Determination of the agonist activity on MT1 receptors
In order to screen compounds for the MT1 receptor a cell line is used that is characterised by stable overexpression of the recombinant human MT1 receptor in a cell line that in turn co-expresses mitochondrial apoaequorin and the Gα16 subunit.
The Gα16 subunit belongs to the G protein family, formed by GPCR, wherein the transduction of intracellular signals occurs via phospholipase (PLC). PLC activation produces an increase in inositol-triphosphate levels that leads to an increase in intracellular calcium. Gα16 overexpression thus allows an increase in intracellular calcium levels that is independent and compatible with the study receptor's own signal transduction pathway.
Following its binding to calcium, the aequorin oxidises coelenterazine to coelenteramide, a reaction that releases CO2 and light.
The trial protocol for the screening of possible agonists consists in collecting the cells and keeping them in suspension overnight in the presence of coelenterazine in order to reconstitute aequorin. On the following day the cells are injected on a plate where the compounds to be screened are diluted, and the luminescence released is read immediately. When wishing to study the possible antagonism of the same compounds, the reference agonist compound is added in the same well after 15-30 min from the first injection and the luminescence released is assessed.
Agonist activity is calculated as percentage activity with respect to the reference agonist at the concentration corresponding to its EC100. Antagonist activity is expressed as percentage inhibition over the reference agonist activity at the concentration corresponding to its EC80.

The conditions of series [4]: background statement; cited from earlier work.

Regarding `CCC(=O)NCC[C@@H]1CCc2ccc(OC)cc21` [(1S)—N-[2-(6-methoxy-indan-1-yl)ethyl]-propionamide, reference compound], in series [1], the metabolic stability entry is listed as “less than 30%”. The concentration at 15 min in series [2] came to 10.1 ng/mL.

For `CCC(=O)N[C@H]1CCN(c2cccc(OC)c2)C1` [Example 3, (S)—N-[1-(3-methoxy-phenyl)-pyrrolidin-3-yl]-propionamide], in series [3], the MT1 agonism 1 nM turned out to be 46.7% and the “MT1 agonism 100 nM” value was found to be 109.9.

As to `COc1cccc(N2CC[C@H](NC(C)=O)C2)c1` [Example 4, (S)—N-[1-(3-methoxy-phenyl)-pyrrolidin-3-yl]-acetamide], in series [3], the MT1 agonism 1 nM turned out to be 34.4% and the “MT1 agonism 100 nM” value is listed as 102.7.

In general, Kp refers to tissue or fluid exposure divided by exposure in the circulation. Regarding `COc1cccc(N2CC[C@H](NC(=O)CC(C)C)C2)c1` [Example 8, (S)—N-[1-(3-methoxy-phenyl)-pyrrolidin-3-yl]-3-methyl-butyramide], in series [3], the MT1 agonism 1 nM worked out at 50.1% and the “MT1 agonism 100 nM” value was 110.3. The Kp at 0.25 h in series [2] (brain/plasma) worked out at 1. Further, in series [2], the concentration at 15 min was 15.1 ng/mL.

For the compound `COc1ccc2[nH]cc(CCNC(C)=O)c2c1` [Melatonin, reference compound], in series [3], the MT1 agonism 1 nM was determined as 51.8% and the “MT1 agonism 100 nM” value is 100.5.

Regarding `CCC(=O)NCC[C@@H]1CCc2ccc3c(c21)CCO3` [Ramelteon, N-[2-[(8S)-1,6,7,8-tetrahydro-2H-indeno[5,4-b]furan-8-yl)ethyl]propionamide, reference compound], the clearance in series [4] is reported as 88%. In series [3], the MT1 agonism 1 nM was 50% and the “MT1 agonism 100 nM” value is on record as 117.5.

On to “(S)-[1-(3-methoxy-phenyl)-pyrrolidin-3-yl]-butyramide [Example 7]”, for which, in series [3], the MT1 agonism 1 nM was determined as 33.4% and the “MT1 agonism 100 nM” value is listed as 99.6.
